What was measured:
Type in all cases: cell-based
Conditions in all cases: compounds at 50 nM and 500 nM
IKZF3 = molecular target: T1, IKZF3 (Homo sapiens, UniProt Q96SW2+Q9UKT9); assay: Western blot degradation of IKZF3 in hPBMCs (24 h)
T1 construct: The supernatant was aspirated as the extracted total cell protein; endogenous in cells; host or cells: human peripheral blood mononuclear cells (hPBMCs)
How it was run: (§1)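 Thawed human PBMCs, 1×10^6 cells/mL; cpd 50 nM or 500 nM, 24 h; RIPA lysis, BCA, SDS-PAGE, NC transfer, immunoblot. Readout: grayscale/internal control → % remaining; degradation = 1 − remaining.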

IKZF2 = molecular target: T2, IKZF2 (Homo sapiens, UniProt Q96SW2+Q9UKS7); assay: Western blot degradation of IKZF2 in hPBMCs (24 h)
T2 construct: The supernatant was aspirated as the extracted total cell protein; endogenous in cells; host or cells: human peripheral blood mononuclear cells (hPBMCs)
How it was run: as §1

IKZF1 = molecular target: T3, IKZF1 (Homo sapiens, UniProt Q13422+Q96SW2); assay: Western blot degradation of IKZF1 in hPBMCs (24 h)
T3 construct: The supernatant was aspirated as the extracted total cell protein; endogenous in cells; host or cells: human peripheral blood mononuclear cells (hPBMCs)
T3 sequence (Q13422 whole entry): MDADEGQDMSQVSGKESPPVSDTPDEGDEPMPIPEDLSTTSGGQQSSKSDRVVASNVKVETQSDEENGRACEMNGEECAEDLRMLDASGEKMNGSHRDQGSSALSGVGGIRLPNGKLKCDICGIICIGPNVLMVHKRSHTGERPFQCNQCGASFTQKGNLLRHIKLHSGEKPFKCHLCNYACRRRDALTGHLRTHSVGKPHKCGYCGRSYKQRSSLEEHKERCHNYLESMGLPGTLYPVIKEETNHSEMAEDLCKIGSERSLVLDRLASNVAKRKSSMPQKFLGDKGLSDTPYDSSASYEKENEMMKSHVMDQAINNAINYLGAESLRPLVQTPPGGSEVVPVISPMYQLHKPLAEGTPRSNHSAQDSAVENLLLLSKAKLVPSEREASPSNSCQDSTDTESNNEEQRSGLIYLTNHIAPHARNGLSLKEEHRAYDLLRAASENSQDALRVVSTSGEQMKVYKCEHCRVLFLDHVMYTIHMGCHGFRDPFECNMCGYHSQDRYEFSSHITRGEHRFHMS
T3 sequence (Q96SW2 whole entry): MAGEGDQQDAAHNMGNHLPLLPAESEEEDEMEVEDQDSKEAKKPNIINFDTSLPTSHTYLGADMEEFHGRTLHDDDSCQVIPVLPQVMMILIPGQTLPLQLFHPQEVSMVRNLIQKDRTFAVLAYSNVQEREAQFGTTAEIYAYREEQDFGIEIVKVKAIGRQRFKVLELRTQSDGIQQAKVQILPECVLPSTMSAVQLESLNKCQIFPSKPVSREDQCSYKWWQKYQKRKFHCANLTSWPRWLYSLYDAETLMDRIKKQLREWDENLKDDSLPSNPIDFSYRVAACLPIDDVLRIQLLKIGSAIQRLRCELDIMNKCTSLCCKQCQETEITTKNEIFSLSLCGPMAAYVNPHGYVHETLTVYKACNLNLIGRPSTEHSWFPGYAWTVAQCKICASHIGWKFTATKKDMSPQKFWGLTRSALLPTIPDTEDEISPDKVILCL
T3 sequence (Q16531 whole entry partner): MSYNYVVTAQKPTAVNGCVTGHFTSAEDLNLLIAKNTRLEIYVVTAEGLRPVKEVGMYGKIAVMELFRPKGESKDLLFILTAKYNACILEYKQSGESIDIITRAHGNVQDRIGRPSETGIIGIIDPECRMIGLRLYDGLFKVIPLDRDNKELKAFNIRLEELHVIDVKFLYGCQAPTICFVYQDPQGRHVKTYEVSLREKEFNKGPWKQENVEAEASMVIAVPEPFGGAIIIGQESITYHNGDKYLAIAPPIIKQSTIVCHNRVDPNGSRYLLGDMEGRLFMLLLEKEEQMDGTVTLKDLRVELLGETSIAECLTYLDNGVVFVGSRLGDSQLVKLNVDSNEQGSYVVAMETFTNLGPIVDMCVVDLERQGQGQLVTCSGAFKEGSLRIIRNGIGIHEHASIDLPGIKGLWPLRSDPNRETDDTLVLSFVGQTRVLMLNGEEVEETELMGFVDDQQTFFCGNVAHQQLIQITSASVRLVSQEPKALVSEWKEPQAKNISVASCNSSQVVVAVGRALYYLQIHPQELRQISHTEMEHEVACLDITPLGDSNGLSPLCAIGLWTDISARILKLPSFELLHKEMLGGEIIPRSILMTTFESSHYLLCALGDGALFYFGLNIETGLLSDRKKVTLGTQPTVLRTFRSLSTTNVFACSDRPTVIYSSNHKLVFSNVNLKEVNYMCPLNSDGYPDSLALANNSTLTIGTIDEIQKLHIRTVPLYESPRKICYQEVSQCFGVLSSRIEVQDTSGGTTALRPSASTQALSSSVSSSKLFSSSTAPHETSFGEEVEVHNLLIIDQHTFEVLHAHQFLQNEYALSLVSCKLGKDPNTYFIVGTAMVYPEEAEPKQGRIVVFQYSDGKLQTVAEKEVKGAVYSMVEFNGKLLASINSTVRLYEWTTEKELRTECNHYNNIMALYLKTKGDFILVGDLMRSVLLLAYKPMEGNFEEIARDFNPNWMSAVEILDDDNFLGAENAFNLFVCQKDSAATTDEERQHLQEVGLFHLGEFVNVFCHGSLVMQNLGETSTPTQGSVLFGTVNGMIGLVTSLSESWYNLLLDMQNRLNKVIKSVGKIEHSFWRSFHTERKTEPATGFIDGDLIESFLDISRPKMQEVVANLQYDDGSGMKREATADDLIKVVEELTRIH
How it was run: as §1

WEE1 = molecular target: T4, WEE1 (Homo sapiens, UniProt P30291+Q96SW2); assay: Western blot degradation of WEE1 in hPBMCs (24 h)
T4 construct: The supernatant was aspirated as the extracted total cell protein; endogenous in cells; host or cells: human peripheral blood mononuclear cells (hPBMCs)
T4 sequence (P30291 whole entry): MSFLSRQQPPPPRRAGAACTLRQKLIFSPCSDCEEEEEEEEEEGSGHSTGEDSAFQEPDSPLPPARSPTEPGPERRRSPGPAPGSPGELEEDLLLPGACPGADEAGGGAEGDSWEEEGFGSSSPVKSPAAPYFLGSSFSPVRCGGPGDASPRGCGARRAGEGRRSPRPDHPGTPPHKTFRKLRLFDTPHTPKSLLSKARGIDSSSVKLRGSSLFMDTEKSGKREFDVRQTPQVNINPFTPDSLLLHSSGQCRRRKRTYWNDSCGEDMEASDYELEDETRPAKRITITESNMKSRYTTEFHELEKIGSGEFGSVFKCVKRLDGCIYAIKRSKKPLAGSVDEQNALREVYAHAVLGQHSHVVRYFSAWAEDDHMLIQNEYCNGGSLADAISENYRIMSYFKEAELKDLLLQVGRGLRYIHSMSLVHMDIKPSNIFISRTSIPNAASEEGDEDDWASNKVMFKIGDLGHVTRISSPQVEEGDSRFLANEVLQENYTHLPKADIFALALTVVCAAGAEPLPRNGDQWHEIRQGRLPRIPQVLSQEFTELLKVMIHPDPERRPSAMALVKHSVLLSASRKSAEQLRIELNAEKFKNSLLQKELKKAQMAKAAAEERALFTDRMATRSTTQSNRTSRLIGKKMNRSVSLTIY
T4 sequence (Q96SW2 whole entry): as the sequence (Q96SW2 whole entry) above
T4 sequence (Q16531 whole entry partner): as the sequence (Q16531 whole entry partner) above
How it was run: as §1

CK1α = molecular target: T5, CK1α (Homo sapiens, UniProt P48729+Q96SW2); assay: Western blot degradation of CK1α in hPBMCs (24 h)
T5 construct: The supernatant was aspirated as the extracted total cell protein; endogenous in cells; host or cells: human peripheral blood mononuclear cells (hPBMCs)
T5 sequence (P48729 whole entry): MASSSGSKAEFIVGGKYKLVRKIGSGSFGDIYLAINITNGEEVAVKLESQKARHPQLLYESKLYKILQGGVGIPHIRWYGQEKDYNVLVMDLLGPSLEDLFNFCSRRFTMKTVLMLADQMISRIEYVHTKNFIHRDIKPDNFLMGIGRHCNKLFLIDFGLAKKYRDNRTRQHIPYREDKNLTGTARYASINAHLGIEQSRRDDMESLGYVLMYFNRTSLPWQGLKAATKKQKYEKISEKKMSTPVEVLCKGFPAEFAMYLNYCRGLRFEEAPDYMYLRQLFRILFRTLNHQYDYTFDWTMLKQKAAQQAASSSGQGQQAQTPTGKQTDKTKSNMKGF
T5 sequence (Q96SW2 whole entry): as the sequence (Q96SW2 whole entry) above
T5 sequence (Q16531 whole entry partner): as the sequence (Q16531 whole entry partner) above
How it was run: as §1

GSPT1 = molecular target: T6, GSPT1 (Homo sapiens, UniProt P15170+Q96SW2); assay: Western blot degradation of GSPT1 in hPBMCs (24 h)
T6 construct: The supernatant was aspirated as the extracted total cell protein; endogenous in cells; host or cells: human peripheral blood mononuclear cells (hPBMCs)
T6 sequence (P15170 whole entry): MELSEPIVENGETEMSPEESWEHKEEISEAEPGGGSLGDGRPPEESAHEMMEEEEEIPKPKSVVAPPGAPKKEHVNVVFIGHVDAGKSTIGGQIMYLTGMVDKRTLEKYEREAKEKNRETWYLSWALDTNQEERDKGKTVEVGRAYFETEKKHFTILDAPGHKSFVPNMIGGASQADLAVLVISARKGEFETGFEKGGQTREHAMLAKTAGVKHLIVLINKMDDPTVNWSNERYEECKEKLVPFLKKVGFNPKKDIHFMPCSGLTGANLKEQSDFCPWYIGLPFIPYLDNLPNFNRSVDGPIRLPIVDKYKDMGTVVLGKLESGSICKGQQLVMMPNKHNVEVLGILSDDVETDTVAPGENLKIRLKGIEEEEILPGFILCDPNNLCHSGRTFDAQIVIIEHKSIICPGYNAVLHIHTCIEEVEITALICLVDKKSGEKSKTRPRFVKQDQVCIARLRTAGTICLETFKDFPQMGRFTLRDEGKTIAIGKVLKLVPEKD
T6 sequence (Q96SW2 whole entry): as the sequence (Q96SW2 whole entry) above
T6 sequence (Q16531 whole entry partner): as the sequence (Q16531 whole entry partner) above
How it was run: as §1

T1 sequence (Q9UKT9 whole entry): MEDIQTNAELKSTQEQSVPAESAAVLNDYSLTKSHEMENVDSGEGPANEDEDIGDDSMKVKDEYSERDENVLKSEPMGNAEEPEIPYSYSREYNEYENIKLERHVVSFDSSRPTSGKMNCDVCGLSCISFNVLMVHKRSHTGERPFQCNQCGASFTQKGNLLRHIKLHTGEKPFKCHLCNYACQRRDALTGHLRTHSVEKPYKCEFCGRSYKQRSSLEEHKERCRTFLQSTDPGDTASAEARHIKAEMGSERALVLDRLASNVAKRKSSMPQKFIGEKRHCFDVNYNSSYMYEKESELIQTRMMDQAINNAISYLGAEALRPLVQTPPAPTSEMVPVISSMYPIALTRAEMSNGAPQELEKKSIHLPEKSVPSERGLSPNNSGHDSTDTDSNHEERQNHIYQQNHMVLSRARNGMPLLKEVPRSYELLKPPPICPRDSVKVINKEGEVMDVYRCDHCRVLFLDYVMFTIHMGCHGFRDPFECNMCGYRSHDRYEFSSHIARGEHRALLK
T1 sequence (Q96SW2 whole entry): as the sequence (Q96SW2 whole entry) above
T1 sequence (Q16531 whole entry partner): as the sequence (Q16531 whole entry partner) above

| SMILES | IKZF3 substrate protein remaining % (IKZF3) | IKZF2 substrate protein remaining % (IKZF2) | IKZF1 substrate protein remaining % (IKZF1) | WEE1 substrate protein remaining % (WEE1) | CK1α substrate protein remaining % (CK1α) | GSPT1 substrate protein remaining % (GSPT1) |
| --- | --- | --- | --- | --- | --- | --- |
| O=C1CCN(N2C(=O)c3ccc(CN4CC=C(c5cncc(Cl)c5)CC4)cc3C2=O)C(=O)N1 [GT-07491, 5-((5-chloro-3′,6′-dihydro-[3,4′-bipyridin]-1′ (2′H)-yl)methyl)-2-(2,4-dioxotetrahydropyrimidin-1(2H)-yl)isoindoline-1,3-dione] | B (80%< substrate protein remaining % ≤100%) | B (80%< substrate protein remaining % ≤100%) | B (80%< substrate protein remaining % ≤100%) | A (0% ≤ substrate protein remaining % ≤80%) | B (80%< substrate protein remaining % ≤100%) | A (0% ≤ substrate protein remaining % ≤80%) |
| O=C1CCN(N2C(=O)c3ccc(CN4CC=C(c5ncccc5F)CC4)cc3C2=O)C(=O)N1 [GT-07492, 2-(2,4-dioxotetrahydropyrimidin-1(2H)-yl)-5-((3-fluoro-3′,6′-dihydro-[2,4′-bipyridin]-1′ (2′H)-yl)methyl)isoindoline-1,3-dione] | B (80%< substrate protein remaining % ≤100%) | B (80%< substrate protein remaining % ≤100%) | B (80%< substrate protein remaining % ≤100%) | B (80%< substrate protein remaining % ≤100%) | A (0% ≤ substrate protein remaining % ≤80%) | B (80%< substrate protein remaining % ≤100%) |
| O=C1CCN(N2C(=O)c3ccc(CN4CCC(c5ccnc(F)c5F)CC4)cc3C2=O)C(=O)N1 [GT-07493, 5-((4-(2,3-difluoropyridin-4-yl)piperidin-1-yl)methyl)-2-(2,4-dioxotetrahydropyrimidin-1(2H)-yl)isoindoline-1,3-dione] | A (0% ≤ substrate protein remaining % ≤80%) | B (80%< substrate protein remaining % ≤100%) | B (80%< substrate protein remaining % ≤100%) | B (80%< substrate protein remaining % ≤100%) | A (0% ≤ substrate protein remaining % ≤80%) | B (80%< substrate protein remaining % ≤100%) |
| O=C1CCN(N2C(=O)c3ccc(CN4CC=C(c5ccnc(F)c5F)CC4)cc3C2=O)C(=O)N1 [GT-07494, 5-((2′,3′-difluoro-3,6-dihydro-[4,4′-bipyridin]-1(2H)-yl)methyl)-2-(2,4-dioxotetrahydropyrimidin-1(2H)-yl)isoindoline-1,3-dione] | B (80%< substrate protein remaining % ≤100%) | B (80%< substrate protein remaining % ≤100%) | B (80%< substrate protein remaining % ≤100%) | A (0% ≤ substrate protein remaining % ≤80%) | A (0% ≤ substrate protein remaining % ≤80%) | B (80%< substrate protein remaining % ≤100%) |
| O=C1CCN(N2Cc3cc(CN4CCC(c5ccon5)CC4)ccc3C2=O)C(=O)N1 [GT-07495, 1-(5-((4-(isoxazol-3-yl)piperidin-1-yl)methyl)-1-oxoisoindolin-2-yl)dihydropyrimidine-2,4(1H,3H)-dione] | B (80%< substrate protein remaining % ≤100%) | B (80%< substrate protein remaining % ≤100%) | B (80%< substrate protein remaining % ≤100%) | B (80%< substrate protein remaining % ≤100%) | A (0% ≤ substrate protein remaining % ≤80%) | A (0% ≤ substrate protein remaining % ≤80%) |
| O=C1CCN(N2Cc3cc(CN4CCN(c5noc6cc(F)ccc56)CC4)ccc3C2=O)C(=O)N1 [GT-07496, 1-(5-((4-(6-fluorobenzo[d]isoxazol-3-yl)piperazin-1-yl)methyl)-1-oxoisoindolin-2-yl)dihydropyrimidine-2,4(1H,3H)-dione] | B (80%< substrate protein remaining % ≤100%) | B (80%< substrate protein remaining % ≤100%) | B (80%< substrate protein remaining % ≤100%) | B (80%< substrate protein remaining % ≤100%) | A (0% ≤ substrate protein remaining % ≤80%) | A (0% ≤ substrate protein remaining % ≤80%) |
| O=C1CCN(N2Cc3cc(CN4CCN(c5noc6ccncc56)CC4)ccc3C2=O)C(=O)N1 [GT-07497, 1-(5-((4-(isoxazolo[4,5-c]pyridin-3-yl)piperazin-1-yl)methyl)-1-oxoisoindolin-2-yl)dihydropyrimidine-2,4(1H,3H)-dione] | B (80%< substrate protein remaining % ≤100%) | A (0% ≤ substrate protein remaining % ≤80%) | A (0% ≤ substrate protein remaining % ≤80%) | A (0% ≤ substrate protein remaining % ≤80%) | A (0% ≤ substrate protein remaining % ≤80%) | A (0% ≤ substrate protein remaining % ≤80%) |
| O=C1CCN(N2Cc3cc(CN4CCN(c5nsc6cc(F)ccc56)CC4)ccc3C2=O)C(=O)N1 [GT-07500, 1-(5-((4-(6-fluorobenzo[d]isothiazol-3-yl)piperazin-1-yl)methyl)-1-oxoisoindolin-2-yl)dihydropyrimidine-2,4(1H,3H)-dione] | B (80%< substrate protein remaining % ≤100%) | B (80%< substrate protein remaining % ≤100%) | A (0% ≤ substrate protein remaining % ≤80%) | A (0% ≤ substrate protein remaining % ≤80%) | A (0% ≤ substrate protein remaining % ≤80%) | A (0% ≤ substrate protein remaining % ≤80%) |
| O=C1CCN(N2Cc3cc(CN4CCN(c5c[nH]c6ncccc56)CC4)ccc3C2=O)C(=O)N1 [GT-07502, 1-(5-((4-(1H-pyrrolo[2,3-b]pyridin-3-yl)piperazin-1-yl)methyl)-1-oxoisoindolin-2-yl)dihydropyrimidine-2,4(1H,3H)-dione] | B (80%< substrate protein remaining % ≤100%) | B (80%< substrate protein remaining % ≤100%) | A (0% ≤ substrate protein remaining % ≤80%) | A (0% ≤ substrate protein remaining % ≤80%) | A (0% ≤ substrate protein remaining % ≤80%) | A (0% ≤ substrate protein remaining % ≤80%) |
| O=C1CCN(N2Cc3cc(CN4CCC(n5cnc6cc(F)ccc65)CC4)ccc3C2=O)C(=O)N1 [GT-07503, 1-(5-((4-(5-fluoro-1H-benzo[d]imidazol-1-yl)piperidin-1-yl)methyl)-1-oxoisoindolin-2-yl)dihydropyrimidine-2,4(1H,3H)-dione] | B (80%< substrate protein remaining % ≤100%) | B (80%< substrate protein remaining % ≤100%) | A (0% ≤ substrate protein remaining % ≤80%) | A (0% ≤ substrate protein remaining % ≤80%) | A (0% ≤ substrate protein remaining % ≤80%) | A (0% ≤ substrate protein remaining % ≤80%) |
| O=C1CCN(N2Cc3cc(CN4CCC(c5n[nH]c6cc(F)ccc56)CC4)ccc3C2=O)C(=O)N1 [GT-07508, 1-(5-((4-(6-fluoro-1H-indazol-3-yl)piperidin-1-yl)methyl)-1-oxoisoindolin-2-yl)dihydropyrimidine-2,4(1H,3H)-dione] | B (80%< substrate protein remaining % ≤100%) | A (0% ≤ substrate protein remaining % ≤80%) | A (0% ≤ substrate protein remaining % ≤80%) | A (0% ≤ substrate protein remaining % ≤80%) | A (0% ≤ substrate protein remaining % ≤80%) | A (0% ≤ substrate protein remaining % ≤80%) |
| O=C1CCN(N2C(=O)c3ccc(CN4CCC(c5noc6ccccc56)CC4)cc3C2=O)C(=O)N1 [GT-07522, 5-((4-(benzo[d]isoxazol-3-yl)piperidin-1-yl)methyl)-2-(2,4-dioxotetrahydropyrimidin-1(2H)-yl)isoindoline-1,3-dione] | B (80%< substrate protein remaining % ≤100%) | A (0% ≤ substrate protein remaining % ≤80%) | A (0% ≤ substrate protein remaining % ≤80%) | A (0% ≤ substrate protein remaining % ≤80%) | A (0% ≤ substrate protein remaining % ≤80%) | A (0% ≤ substrate protein remaining % ≤80%) |
| O=C1CCN(N2C(=O)c3ccc(CN4CCC(c5ccon5)CC4)cc3C2=O)C(=O)N1 [GT-07523, 2-(2,4-dioxotetrahydropyrimidin-1(2H)-yl)-5-((4-(isoxazol-3-yl)piperidin-1-yl)methyl)isoindoline-1,3-dione] | B (80%< substrate protein remaining % ≤100%) | A (0% ≤ substrate protein remaining % ≤80%) | A (0% ≤ substrate protein remaining % ≤80%) | A (0% ≤ substrate protein remaining % ≤80%) | A (0% ≤ substrate protein remaining % ≤80%) | A (0% ≤ substrate protein remaining % ≤80%) |

From US20260356819A1, “OXOISOINDOLINYL-SUBSTITUTED […] DERIVATIVE AND USE THEREOF” (GLUETACS THERAPEUTICS (SHANGHAI) CO., LTD., priority 2023, published 2026)
